# Measurements as given in US6723710B2, “Compositions for inhibiting arginase activity” (The Trustees of the University of Pennsylvania, priority 1997, dated 2004).
# B1: Recombinant rat liver arginase (Rattus norvegicus) (protein)
# chain: MSSKPKPIEIIGAPFSKGQPRGGVEKGPAALRKAGLVEKLKETEYNVRDHGDLAFVDVPNDSPFQIVKNPRSVGKANEQLAAVVAETQKNGTISVVLGGDHSMAIGSISGHARVHPDLCVIWVDAHTDINTPLTTSSGNLHGQPVAFLLKELKGKFPDVPGFSWVTPCISAKDIVYIGLRDVDPGEHYIIKTLGIKYFSMTEVDKLGIGKVMEETFSYLLGRKKRPIHLSFDVDGLDPVFTPATGTPVVGGLSYREGLYITEEIYKTGLLSGLDIMEVNPTLGKTPEEVTRTVNTAVALTLSCFGTKREGNHKPETDYLKPPK
# notes: made in house
# Tests used:
# [1] = test system: arginase activities of the various tissues; assay: arginase activity in tissue homogenates (liver, IAS, rectum, brain) with NO synthase inhibitor; assay type: biochemical, opossum; conditions: 80 micromolar; basal and in the presence of L-HO-Arg
# Description: Tissue samples of the opossum internal anal sphincter muscle (IAS), adjoining rectal tissue, liver, and brain were homogenized using an ULTRATURRAX™ tissue homogenizer (Tekamr, Cincinnati, Ohio) in a solution comprising 10 millimolar Tris-HCl, 150 millimolar KCl, and 25 millimolar MnCl2, at pH 7.4. The homogenates were dialyzed overnight against the same solution. […]
# Arginase activity in tissue homogenates was evaluated using the radioactive L-[guanidino^14C]arginine assay of Rüegg and Russell (1980, Anal. Biochem. 102:206-212). […] Urea was separated from non-reacted L-[guanidino-^14C]arginine by treatment with 200 μl of 1:1 v/v slurry of DOWEX™ 50W-X8 in water, and quantitated by adding 200 microliters of the supernatant from the DOWEX™ treatment to 3 milliliters of LIQUISCENT™ (National Diagnostics) for liquid scintillation counting in a Beckman LS 5000CE counter. The data were analyzed using double-reciprocal plots of the initial velocity measurements; standard errors were determined by regression analysis.
# Thus, it is possible that tissue variations in inhibition of arginase activities by L-HO-Arg could be due to depletion of added L-HO-Arg by conversion to NO. In order to test this possibility, the effects of L-HO-Arg on arginase activities in the tissue homogenates were determined in the presence of the NO synthase inhibitor L-NNA.
# [2] = test system: internal anal sphincter (IAS) smooth muscle; assay: NANC nerve-mediated relaxation of IAS smooth muscle strips by electrical field stimulation; parameters: species or system opossum (Didelphis virginiana); conditions: L-NNA 3×10^−6 molar
# [3] = substrate: N=C(N)Nc1cccc([N+](=O)[O-])c1; assay: continuous chromogenic arginase assay with substrate 1-nitro-3-guanidinobenzene (compound 18); assay type: biochemical, rat; conditions: other: as substrate, bicine pH 9.0
# Description: The activity of wild-type arginase was monitored spectrophotometrically using a Pharmacia BIOTECH ULTROSPEC™ 2000. Assays were performed in a solution comprising 100 micromolar MnCl2 and 50 millimolar bicine-NaOH (pH 9.0). […] Eadie-Hofstee plots were used to analyze the data.
Molecule,effect of L-NNA on arginase activities [1],IAS relaxation in the presence of L-NNA ([2]; 0.5 Hertz EFS),IAS relaxation in the presence of L-NNA ([2]; 1 Hertz EFS),IAS relaxation in the presence of L-NNA ([2]; 2 Hertz EFS),IAS relaxation in the presence of L-NNA ([2]; 5 Hertz EFS),Km [3]
"N=C(NCCC[C@H](N)C(=O)O)N[N+](=O)[O-] [L-NNA, N^ω-nitro-L-arginine]",no significant effect,0±0%,0.6±0.6%,1.8±1.1%,5.4±2.1%,–
B1,–,–,–,–,–,1.6±0.2 millimolar
